Experimental data published in the supplement of paper PMC10307832.

Assays:
Test in all cases: relative viability (nuclei count vs DMSO), 5 days (fraction); higher = more cells survive
[1] = compound: Cc1ccc(-n2nc(C(C)(C)C)cc2NC(=O)Nc2ccc(OCCN3CCOCC3)c3ccccc23)cc1 [Doramapimod] + Cc1nc(NC(=O)N2CCC[C@H]2C(N)=O)sc1-c1ccnc(C(C)(C)C(F)(F)F)c1 [Alpelisib] (partner 2 µM)
Summary of the method: (§1)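 Lung cancer cell lines in 1536-well plates got either a single drug or a fixed anchor-drug dose together with five library-drug doses (not always all listed) in √10 steps, by pin tool, on the day after seeding. Nuclei were counted after 5 days, and relative viability is the treated-to-vehicle ratio of nuclei counts. Values are medians of duplicate plates.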

[2] = compound: Cn1c(Nc2ccc(C(F)(F)F)cc2)nc2cc(Oc3ccnc(-c4ncc(C(F)(F)F)[nH]4)c3)ccc21 [RAF265] + CC(=O)Nc1cccc(-n2c(=O)n(C3CC3)c(=O)c3c(Nc4ccc(I)cc4F)n(C)c(=O)c(C)c32)c1 [Trametinib] (partner 0.02 µM)
Summary of the method: as §1

[3] = compound: Cc1ccc(-n2nc(C(C)(C)C)cc2NC(=O)Nc2ccc(OCCN3CCOCC3)c3ccccc23)cc1 [Doramapimod] + CC1(C)CCC(c2ccc(Cl)cc2)=C(CN2CCN(c3ccc(C(=O)NS(=O)(=O)c4ccc(N[C@H](CCN5CCOCC5)CSc5ccccc5)c(S(=O)(=O)C(F)(F)F)c4)cc3)CC2)C1 [Navitoclax] (partner 0.5 µM)
Summary of the method: as §1

[4] = compound: C1=CC=C2C(=C1)C=CC(=C2SSC3=C(C=CC4=CC=CC=C43)O)O [IPA-3] + COc1cc2c(Oc3ccc(NC(=O)C4(C(=O)Nc5ccc(F)cc5)CC4)cc3F)ccnc2cc1OCCCN1CCOCC1 [Foretinib] (partner 0.25 µM)
Summary of the method: as §1

Row | Cell Line | relative viability ([1]; first compound 0.02 µM) | relative viability ([1]; first compound 0.06325 µM) | relative viability ([1]; first compound 0.2 µM) | relative viability ([1]; first compound 0.6325 µM) | relative viability ([1]; first compound 2 µM) | relative viability ([2]; first compound 0.01 µM) | relative viability ([2]; first compound 0.03162 µM) | relative viability ([2]; first compound 0.1 µM) | relative viability ([2]; first compound 0.3162 µM) | relative viability ([2]; first compound 1 µM) | relative viability ([3]; first compound 0.02 µM) | relative viability ([3]; first compound 0.06325 µM) | relative viability ([3]; first compound 0.2 µM) | relative viability ([3]; first compound 0.6325 µM) | relative viability ([3]; first compound 2 µM) | relative viability ([4]; first compound 0.2 µM) | relative viability ([4]; first compound 0.6325 µM) | relative viability ([4]; first compound 2 µM) | relative viability ([4]; first compound 6.325 µM) | relative viability ([4]; first compound 20 µM)
1 | 201T | 1.04 | 1 | 0.992 | 1.07 | 0.982 | 0.781 | 0.696 | 0.717 | 0.748 | 0.716 | 1.27 | 1.24 | 1.2 | 1.29 | 1.28 | 1.33 | 1.11 | 1.17 | 1.09 | 1.15
2 | A549 | 0.69 | 0.626 | 0.675 | 0.784 | 0.55 | – | – | – | – | – | 1.18 | 1.22 | 1.39 | 1.34 | 1.1 | 0.988 | 0.927 | 1.01 | 0.884 | 1.21
3 | A-427 | 1.07 | 1.1 | 1.15 | – | 1.08 | 0.905 | 0.507 | 0.592 | 0.403 | 0.198 | 1.02 | 1.01 | 1.02 | – | 1.08 | 1.1 | 1.08 | 1.11 | 1.06 | 1.14
4 | ABC-1 | 1.09 | 0.839 | 1.14 | 1.08 | 0.954 | – | – | – | – | – | – | – | – | – | – | 1.06 | 1.13 | 1 | 1.17 | 1.19
5 | BEN | 0.903 | 0.876 | 1.05 | 0.97 | 0.95 | 1.12 | 1.25 | 1.05 | 1.17 | 0.908 | 0.0531 | 0.0454 | 0.0875 | 0.0584 | 0.0743 | 0.733 | 0.598 | 0.729 | 0.889 | 0.614
6 | CAL-12T | 1.1 | 1.05 | 1.21 | 1.41 | 1.09 | 0.334 | 0.296 | 0.273 | 0.209 | 0.333 | 1.14 | 1.14 | 1.14 | 1.48 | 1.03 | 1.16 | 1.01 | 1.12 | 0.976 | 1.14
7 | COR-L23 | 0.762 | 0.719 | 0.755 | 0.734 | 0.697 | 0.684 | 0.444 | 0.331 | 0.247 | 0.207 | 1.1 | 0.989 | 1 | 1.07 | 1.02 | 1.12 | 0.964 | 1.04 | 0.928 | 0.906
8 | COR-L 105 | 0.844 | 1.07 | 0.983 | 1 | 0.963 | 0.47 | 0.428 | 0.429 | 0.38 | 0.348 | 0.685 | 0.713 | 0.811 | 0.81 | 0.889 | 1.24 | 1.11 | 0.744 | 1.02 | 1.15
9 | Calu-6 | 1.05 | 0.924 | 0.866 | 1.16 | 0.986 | – | – | – | – | – | 0.885 | 0.894 | 0.899 | 0.92 | 0.846 | 1.01 | 0.95 | 0.96 | 0.808 | 0.932
10 | ChaGo-K-1 | – | – | – | – | – | 0.903 | 0.965 | 0.859 | 0.776 | 0.632 | 1.07 | 1.25 | 1.24 | – | 1.01 | 0.933 | 0.875 | 0.996 | 0.93 | 1.14
11 | EBC-1 | 0.804 | 0.792 | 0.785 | 0.933 | 0.675 | – | – | – | – | – | 0.428 | 0.335 | 0.332 | 0.417 | 0.372 | 0.104 | 0.113 | 0.0992 | 0.121 | 0.108
12 | EKVX | 0.826 | 0.755 | 0.773 | 1 | 0.833 | 0.387 | 0.385 | 0.417 | 0.217 | 0.277 | 0.677 | 0.915 | 0.936 | 0.895 | 0.934 | 0.775 | 0.668 | 0.895 | 0.893 | 1.21
13 | EMC-BAC-2 | 0.75 | 0.736 | 0.727 | 0.761 | 0.695 | 0.977 | 0.857 | 0.85 | 0.62 | 0.313 | 1.18 | 1.17 | 1.16 | 1.25 | 0.99 | 1.07 | 1 | 1.07 | 1.01 | 1.22
14 | EPLC-272H | 0.924 | 0.918 | 0.946 | 1.04 | 0.811 | 0.28 | 0.287 | 0.3 | 0.204 | 0.205 | 1.14 | 0.943 | 1.12 | 1.23 | 0.978 | 0.901 | 0.639 | 0.655 | 0.795 | 0.857
15 | H3255 | 0.785 | 0.659 | 0.705 | 0.83 | 0.621 | 0.719 | 0.585 | 0.657 | 0.271 | 0.458 | 0.531 | 0.586 | 0.553 | 0.636 | 0.479 | 0.861 | 0.865 | 0.876 | 0.832 | 0.861
16 | HARA | 0.807 | 0.762 | 0.742 | 0.846 | 0.598 | 0.771 | 0.484 | 0.673 | 0.353 | 0.308 | 1.1 | 1.13 | 1.12 | 1.11 | 1.07 | 1.23 | 0.854 | 0.943 | 0.855 | 1.31
17 | HCC-15 | 0.854 | 0.801 | 0.884 | 0.906 | 0.775 | 0.346 | 0.403 | 0.379 | 0.338 | 0.21 | 0.657 | 0.629 | 0.726 | 0.691 | 0.634 | 1.11 | 0.965 | 1.03 | 1.01 | 1.02
